Reference: US8592451B2, “Reversible nondepolarizing neuromuscular blockade agents and methods for their use” (Cornell University, priority 2009, dated 2013)

Key:
[1] = test system: twitch of the extensor digitorum; assay: Neuromuscular blocking potency and duration in anesthetized rhesus monkeys; format: in vivo, rhesus monkeys (Macaca mulatta); conditions: following cumulative dosage, three animals
Procedure: Experiments were approved by the Institutional Animal Care and Use Committee of Weill Medical College of Cornell University (New York, N.Y.) and of Albany Medical College (Albany, N.Y.), where the studies were conducted. A colony of 10 adult male monkeys (Macaca mulatta) weighing 8-18 kg was studied at ˜6 week intervals. Animals were housed and cared for in accordance with the Guide for Care and Use of Laboratory Animals (National Research Council, Washington, D.C.). They were fed a standard Old World monkey diet, enriched with fruits and vegetables, and other dietary novelties and were followed throughout the study to verify normal health by physical examination, body weight, and clinical laboratory studies (Complete Blood Count, Blood Urea Nitrogen and creatinine, and liver function tests).
On the day of each study, monkeys received ketamine (7-10 mg/kg i.m.) followed by tracheal intubation under topical anesthesia with 4% lidocaine. Ventilation was controlled at 10 mL/kg and 20 breaths/min with isoflurane (1.0-2.0%) and N2O/O2 (2:1 mixture). Ringers lactate was administered at ˜10 ml kg^−1 h^−1. Arterial pressure was monitored from a femoral, superficial tibial, or radial (22 gauge) cannula. Heart rate was measured by tachograph from the arterial pulse wave. Core temperature was kept at 36.5-38.0° C. by warming blankets. Electrocardiogram and pulse oximetry were monitored continuously.
Needle electrodes (25 gauge) transmitting square-wave pulses of 0.2 msec duration at supramaximal voltage which were generated by a Grass S-88 stimulator (Grass Instruments, Quincy, Mass.) were placed at the peroneal nerve at the knee to elicit twitch responses of the extensor digitorum of the foot at 0.15 Hz. A small slip (10-20%) of the tendon was dissected free under sterile technique and tied to a Grass FT 10 force transducer (Grass Instruments, Quincy, Mass.) at a baseline tension of 50 gm. Train-of four stimulation (TOF, 2 Hz for 2 sec) was interposed at appropriate points, especially 1-2 min prior to NMBA dosing and following recovery of twitch to 95% of baseline, where TOF was subsequently evaluated every 1-2 min.
Recordings of circulatory and neuromuscular data were made on a Grass 7B polygraph (Grass Instruments). A baseline period of 15-20 min was allowed for stabilization of recordings prior to dosing.^2
Dose-response curves for twitch blockade by gantacurium, CW 002, CW 011, cisatracurium, CW002-Cys, NB 938-69, NB 1064-81, NB 802-17 (CW 001), NB 832-65, and NB 1163-79, structures of which are all shown above, were generated as follows. […] Successive doses were separated by at least three estimated half lives beyond complete recovery of the previous dose to TOF of 110-120%, which is normal for these monkeys. Only the first one or two doses yielding 5 to 99% blockade were included from any single experiment for computation of dose-response data.
Comparative studies of spontaneous recovery versus antagonism/reversal were done at least 3 estimated half-lives following dose-response studies.
ED 50 and ED 95 were computed from the regression of log dose vs. the logit of percentage blockade of twitch.
CW002-Cys, the L-cysteine adduct of CW 002, was available in limited quantity and was administered in cumulative fashion to three animals to compare approximate potency and duration of effect versus its parent compound CW 002.

[2] = Stability of the CW 002-cysteine adduct (HPLC); format: physicochemical
Procedure: [drawing 58] was prepared in one step from CW 002. CW 002 was dissolved in deionized water to give a solution concentration of 37 mg/ml at a pH of 6.6. A 5 mol % excess of L-cysteine hydrochloride monohydrate was added in one portion at ambient temperature to give a solution pH of 2. Stirring for 12 hours gave complete consumption of CW 002, as observed by HPLC. CW002-Cys was isolated as an off-white solid after reaction mixture lyophilization. Product purity was estimated at 95% by HPLC peak area %.
At low pH and temperature, one new peak was formed on L-cysteine addition as the peak corresponding to CW 002 diminished. This new peak corresponds to the initial peak observed in the in vitro L-cysteine adduction experiments at 37° C. and a pH of 7.4. At elevated temperature and pH, such as conditions used to mimic in vivo reactivity, this initial peak quickly diminishes over time (t½˜60 min) while two new adduct peaks arise secondary to alkaline hydrolysis of the adduct. However, at ambient temperature and a pH of 2, the initial adduct is stable for >24 hours, allowing for isolation of the intermediate.

COc1ccc(C[C@@H]2c3cc(OC)c(OC)cc3CC[N@@+]2(C)CCCOC(=O)CC(SC[C@@H](N)C(=O)O)C(=O)OCCC[N@+]2(C)CCc3cc(OC)c(OC)cc3[C@H]2Cc2ccc(OC)c(OC)c2)cc1OC (stereo partly drawn) [CW002-Cys]
Duration, spontaneous recovery (times approximate) [1]: ~30-35^+++ min
half-life ([2]; 37° C., pH 7.4, read-out: t½ of initial adduct peak (alkaline hydrolysis of the adduct)): ~1 h
time the initial adduct is stable ([2]; ambient temperature, pH of 2): > 24 h
